Experimental data published in patent US20230192705A1, “SHP2 INHIBITORS, COMPOSITIONS AND USES THEREOF” (Betta Pharmaceuticals Co., Ltd, priority 2020, published 2023).
Read-outs that look alike come from different tables or passages of the source.

Experiments:
leukemia MV-4-11 cell = experiment: Cell proliferation assay (CellTiter-Glo), MV-4-11; assay type: cell-based; conditions: Homo sapiens, MV4-11, MV-4-11, 120 hrs, CTG, read-out: Compound on MV-4-11 cell IC50
Method: (§1) The effects of the compounds on the proliferation of leukemia MV-4-11 cell and lung cancer NCI-H358 cell were evaluated by in vitro cell test. The assay used in this study was the CELL TITER-GLO (CTG) luminescence assay, which can detect the number of living cells by quantitative determination of ATP. Because ATP is involved in a variety of enzymatic reactions in vivo and is an indicator of the metabolism of living cells, its content can directly reflects the number and state of cells. During the experiment, Celltiter-Glo™ reagent was added to the cell culture medium to measure the luminescence value. The luminescence value was proportional to the amount of ATP, which in turn was positively correlated with the number of living cells. Therefore, ATP content can be used to detect cell viability.
A bottle of MV-4-11 cells in logarithmic growth phase was taken, the cells were collected, centrifuged, resuspend, counted, and then inoculated into 96-well Microplate (Corning #3917), with 4000 cells inoculated in each well. The plates were placed in an incubator at 37° C. and 5% CO2 for 24 hrs culture, and the compounds of the invention were added for conducting.
(§2) An appropriate amount of the compound of the invention was taken for cell treatment, and the final concentration of the compound from high to low was 1000 nM, 333.3 nM, 111.1 nM, 37.04 nM, 12.35 nM, 4.115 nM, 1.372 nm, 0.4572 nM, 0.1524 nM, 0 nM, respectively. The orifice plate was cultured in an incubator at 37° C. and 5% CO2. Only adding medium without adding cell hole was set as blank group. Compound concentration of 0 nM group was zero control group.
After cultured for 120 hrs, MV-4-11 cells were added with 50 μL CellTiter-Glo® Luminescent cell viability assay solution in each well, gently shaken for 2 mins, and incubated at room temperature for 10 mins. The detection values of each well were read on the multi-functional microplate reader.
(§3) The inhibition rate is calculated according to the luminous value reading,
(§4) Inhibition rate %=(1−(administration group value−blank group value)/(control group value−blank group value)*100
(§5) The log (inhibitor) vs. response variable slope of GraphPad Prism was used to fit the dose-response curve and calculate the IC50 of compounds inhibiting cell proliferation.

[1] = tested on: lung cancer NCI-H358 cell; experiment: Cell proliferation assay (CellTiter-Glo), NCI-H358; assay type: cell-based; conditions: Homo sapiens, NCI-H358, 96 hrs, CTG, read-out: Compound on NCI-H358 cell IC50
Method: as §1
A bottle of NCI-H358 cells in logarithmic growth phase was taken, the cells were digested and resuspend, counted, and then the cell density was adjusted. After that, the cells were inoculated into a 96-well Ultra-Low Attachment Microplate (Corning #3474), 2000 cells were inoculated in each well, and the well plate was placed in an incubator at 37° C. and 5% CO2, and the compounds of the invention were added for conducting.
as §2
NCI-H358 cells were cultured for 96 hrs, then 50 μL CellTiter-Glo® Luminescent cell viability assay solution was added to each well, and the cells were gently shaken for 2 mins, and incubated at room temperature for 10 mins. The cell reaction system was transferred to 96-well Microplate (Corning #3917). The detection values of each well were read on the multi-functional microplate reader.
as §3, §4, §5

SHP2 = target: T1, SHP2 (Homo sapiens, UniProt Q06124); experiment: SHP2 allosteric inhibitor enzyme activity assay (DiFMUP fluorescence); assay type: biochemical
T1 sequence (Q06124 1-593): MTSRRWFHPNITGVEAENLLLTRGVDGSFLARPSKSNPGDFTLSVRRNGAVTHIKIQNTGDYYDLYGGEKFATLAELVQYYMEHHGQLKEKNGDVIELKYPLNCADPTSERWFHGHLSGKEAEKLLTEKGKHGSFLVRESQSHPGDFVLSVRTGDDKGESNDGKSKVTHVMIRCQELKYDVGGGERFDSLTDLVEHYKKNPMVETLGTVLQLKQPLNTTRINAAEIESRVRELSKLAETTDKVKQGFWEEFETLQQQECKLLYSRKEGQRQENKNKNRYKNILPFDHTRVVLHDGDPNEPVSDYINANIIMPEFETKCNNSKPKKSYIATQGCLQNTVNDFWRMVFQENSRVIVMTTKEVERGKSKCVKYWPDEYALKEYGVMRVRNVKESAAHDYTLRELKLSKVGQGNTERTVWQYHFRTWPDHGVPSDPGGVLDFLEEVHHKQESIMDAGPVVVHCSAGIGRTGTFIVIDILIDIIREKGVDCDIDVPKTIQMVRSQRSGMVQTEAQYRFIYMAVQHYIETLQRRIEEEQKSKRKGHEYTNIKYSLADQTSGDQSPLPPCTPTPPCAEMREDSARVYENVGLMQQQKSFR
Method in brief: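 SHP2 activated by 0.5 μM IRS1_pY1172(dPEG8)pY1222 peptide, 0.2 ng enzyme per well, 1 h at room temperature with compound (1 μM top, 3-fold series), then DiFMUP substrate 1 h. Buffer: 60 mM HEPES, 75 mM NaCl, 75 mM KCl, 0.05% BRIJ-35, 1 mM EDTA, 5 mM DTT. Fluorescence ex 340/em 450 nm; IC50 by variable-slope fit.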

| Compound | IC50 (leukemia MV-4-11 cell; numeric values) [nM] | IC50 ([1]; numeric values) [nM] | IC50 (SHP2; class symbols) [nM] | IC50 (leukemia MV-4-11 cell; class symbols) [nM] | IC50 ([1]; class symbols) [nM] | IC50 (SHP2; numeric values) [nM] |
| --- | --- | --- | --- | --- | --- | --- |
| N[C@@H]1c2ccccc2CC12CCN(c1nn3cc(C4CC4)nc3s1)CC2 [Comparative compound 2, reference compound] | 454 | 1810 | – | – | – | – |
| N[C@@H]1c2ccccc2CC12CCN(c1nc3[nH]nc(C4(c5cccc(Cl)c5)CC4)c3c(=O)[nH]1)CC2 [Example 4, (S)-6-(1-amino-1,3-dihydrospiro[indene-2,4′-piperidin]-1′-yl)-3-(1-(3-chlorophenyl)cyclopropyl)-1,5-dihydro-4H-pyrazolo[3,4-d]pyrimidin-4-one] | – | – | ≤ 20 | ≤ 20 | ≤ 20 | – |
| Cc1cccc(C2(c3n[nH]c4nc(N5CCC6(CC5)Cc5ccccc5[C@H]6N)[nH]c(=O)c34)CC2)c1 [Example 10, (S)-6-(1-amino-1,3-dihydrospiro[indene-2,4′-piperidin]-1′-yl)-3-(1-(m-tolyl)cyclopropyl)-1,5-dihydro-4H-pyrazolo[3,4-d]pyrimidin-4-one] | – | – | – | ≤ 20 | ≤ 20 | 0.9 |
| COc1ccccc1C1(c2n[nH]c3nc(N4CCC5(CC4)Cc4ccccc4[C@H]5N)[nH]c(=O)c23)CC1 [Example 17, (S)-6-(1-amino-1,3-dihydrospiro[indene-2,4′-piperidin]-1′-yl)-3-(1-(2-methoxyphenyl)cyclopropyl)-1,5-dihydro-4H-pyrazolo[3,4-d]pyrimidin-4-one] | – | – | ≤ 20 | 20 to 60 | 20 to 60 | – |
| COc1cccc(C2(c3n[nH]c4nc(N5CCC6(CC5)Cc5ccccc5[C@H]6N)[nH]c(=O)c34)CC2)c1 [Example 18, (S)-6-(1-amino-1,3-dihydrospiro[indene-2,4′-piperidin]-1′-yl)-3-(1-(3-methoxyphenyl)cyclopropyl)-1,5-dihydro-4H-pyrazolo[3,4-d]pyrimidin-4-one] | – | – | ≤ 20 | ≤ 20 | ≤ 20 | – |
| N[C@@H]1c2ccccc2CC12CCN(c1nc3[nH]nc(C4=CCOc5cc(F)ccc54)c3c(=O)[nH]1)CC2 [Example 115, (S)-6-(1-amino-1,3-dihydrospiro[indene-2,4′-piperidin]-1′-yl)-3-(7-fluoro-2H-chromen-4-yl)-1,5-dihydro-4H-pyrazolo[3,4-d]pyrimidin-4-one] | 1.4 | 1.2 | ≤ 20 | – | – | – |
| N#Cc1ccc2c(c1)CCC=C2c1n[nH]c2nc(N3CCC4(CC3)Cc3ccccc3[C@H]4N)[nH]c(=O)c12 [Example 122, (S)-5-(6-(1-amino-1,3-dihydrospiro[indene-2,4′-piperidin]-1′-yl)-4-oxo-4,5-dihydro-1H-pyrazolo[3,4-d]pyrimidin-3-yl)-7,8-dihydronaphthalene-2-carbonitrile] | 2.1 | 1.1 | – | – | – | 1.1 |
| N[C@@H]1c2ccccc2CC12CCN(c1nc3[nH]nc(C4=CCOc5c(F)cccc54)c3c(=O)[nH]1)CC2 [Example 124] | 1.7 | 1.6 | – | – | – | 0.48 |
| N[C@@H]1c2ccccc2CC12CCN(c1nc3[nH]nc(C4=CCCCc5ccccc54)c3c(=O)[nH]1)CC2 [Example 125] | 1.9 | 1.1 | – | – | – | 1.6 |
| N[C@@H]1c2ccccc2CC12CCN(c1nc3[nH]nc(C4=CCCc5nc(Cl)ccc54)c3c(=O)[nH]1)CC2 [Example 139, (S)-6-(1-amino-1,3-dihydrospiro[indene-2,4′-piperidin]-1′-yl)-3-(2-chloro-7,8-dihydroquinolin-5-yl)-1,5-dihydro-4H-pyrazolo[3,4-d]pyrimidin-4-one] | 2.8 | 2 | – | – | – | 1.6 |
| CC1(C)C=C(c2n[nH]c3nc(N4CCC5(CC4)Cc4ccccc4[C@H]5N)[nH]c(=O)c23)c2ccc(C(F)(F)F)nc2C1 [Example 144, (S)-6-(1-amino-1,3-dihydrospiro[indene-2,4′-piperidin]-1′-yl)-3-(7,7-dimethyl-2-(trifluoromethyl)-7,8-dihydroquinolin-5-yl)-1,5-dihydro-4H-pyrazolo[3,4-d]pyrimidin-4-one] | – | – | ≤ 20 | 20 to 60 | 20 to 60 | – |
| C#Cc1cccc(C2(c3n[nH]c4nc(N5CCC6(CC5)Cc5ccccc5[C@H]6N)[nH]c(=O)c34)CC2)c1 [Example 222, (S)-6-(1-amino-1,3-dihydrospiro[indene-2,4′-piperidin]-1′-yl)-3-(1-(3-ethynylphenyl)cyclopropyl)-1,5-dihydro-4H-pyrazolo[3,4-d]pyrimidin-4-one] | – | – | ≤ 20 | ≤ 20 | ≤ 20 | – |
| CC(=O)c1cccc(C2(c3n[nH]c4nc(N5CCC6(CC5)Cc5ccccc5[C@H]6N)[nH]c(=O)c34)CC2)c1 [Example 223, (S)-3-(1-(3-acetylphenyl)cyclopropyl)-6-(1-amino-1,3-dihydrospiro[indene-2,4′-piperidin]-1′-yl)-1,5-dihydro-4H-pyrazolo[3,4-d]pyrimidin-4-one] | 2.8 | 11 | ≤ 20 | – | – | – |
